Laboratory results: patent US8563729B2, “Thienopyridone derivatives as AMP-activated protein kinase (AMPK) activators” (Merck Patent GmbH, priority 2008, dated 2013)

What was measured:
[1] = target: T1, AMPK protein (recombinant α1β1γ2) (Homo sapiens, UniProt Q13131+Q9Y478); assay: AMPK enzymatic activity (Delfia, AMARA peptide substrate); format: biochemical; conditions: compound 30 μM vs AMP 30 μM; 125 μM ATP; ratio 90% or higher = direct activator
T1 construct: made in house; host or cells: E. coli
T1 sequence (Q13131 whole entry): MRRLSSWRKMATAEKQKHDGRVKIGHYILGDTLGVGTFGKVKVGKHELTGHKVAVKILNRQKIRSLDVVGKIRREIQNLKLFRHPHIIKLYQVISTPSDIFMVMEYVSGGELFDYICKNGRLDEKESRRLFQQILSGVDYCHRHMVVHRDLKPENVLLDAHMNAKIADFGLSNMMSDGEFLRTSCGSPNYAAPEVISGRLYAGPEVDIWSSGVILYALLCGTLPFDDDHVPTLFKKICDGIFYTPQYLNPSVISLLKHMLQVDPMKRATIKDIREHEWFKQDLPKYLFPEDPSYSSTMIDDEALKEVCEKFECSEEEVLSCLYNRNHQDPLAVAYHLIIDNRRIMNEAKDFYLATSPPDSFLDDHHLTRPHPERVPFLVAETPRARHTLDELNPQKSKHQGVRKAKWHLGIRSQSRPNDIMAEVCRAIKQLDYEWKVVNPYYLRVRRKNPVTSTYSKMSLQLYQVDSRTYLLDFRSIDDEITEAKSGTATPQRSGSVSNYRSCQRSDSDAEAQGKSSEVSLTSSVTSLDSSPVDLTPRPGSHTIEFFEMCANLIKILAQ
T1 sequence (Q9Y478 whole entry): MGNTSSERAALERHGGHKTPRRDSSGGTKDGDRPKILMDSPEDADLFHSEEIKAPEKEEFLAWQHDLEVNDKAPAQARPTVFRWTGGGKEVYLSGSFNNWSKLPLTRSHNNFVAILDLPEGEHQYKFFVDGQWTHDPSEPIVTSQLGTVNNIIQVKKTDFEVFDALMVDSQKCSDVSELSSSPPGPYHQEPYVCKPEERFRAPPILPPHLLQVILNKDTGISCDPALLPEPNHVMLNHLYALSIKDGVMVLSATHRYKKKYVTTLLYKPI
T1 sequence (Q9UGJ0 whole entry partner): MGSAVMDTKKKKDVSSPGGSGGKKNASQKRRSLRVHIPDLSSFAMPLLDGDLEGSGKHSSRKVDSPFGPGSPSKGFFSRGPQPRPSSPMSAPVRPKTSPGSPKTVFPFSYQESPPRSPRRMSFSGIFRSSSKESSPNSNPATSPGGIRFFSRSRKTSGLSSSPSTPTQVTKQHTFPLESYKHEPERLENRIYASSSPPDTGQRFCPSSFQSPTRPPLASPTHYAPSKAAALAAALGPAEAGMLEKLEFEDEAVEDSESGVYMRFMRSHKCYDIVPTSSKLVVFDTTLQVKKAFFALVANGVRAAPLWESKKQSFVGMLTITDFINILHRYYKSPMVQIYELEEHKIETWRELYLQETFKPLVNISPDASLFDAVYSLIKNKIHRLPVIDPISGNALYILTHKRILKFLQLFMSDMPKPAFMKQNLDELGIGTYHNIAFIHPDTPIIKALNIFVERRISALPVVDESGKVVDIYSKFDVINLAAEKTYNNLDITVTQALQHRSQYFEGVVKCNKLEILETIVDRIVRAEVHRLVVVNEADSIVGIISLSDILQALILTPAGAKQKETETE
Description: The following biological test allows the determination of the efficacy of such compounds of formula (I) onto AMPK protein (recombinant α1β1γ2).
Human recombinant AMPK enzyme was expressed in E. Coli and was reactivated in vitro by LKB1 prior to enzyme activity determination.
AMPK enzyme activities were assayed by using A Delfia technology. AMPK enzyme activities were carried out in microtiter plates (50 mM Hepes buffer, pH 7.4 with 125 μM ATP respectively) in the presence of a synthetic peptide substrate (AMARAASAAALARRR, the “AMARA” peptide) and activators in serial dilutions. Reactions were initiated by the addition of AMPK (50-100 ng). Following mixing, the plates were incubated for 30 min at room temperature. Enzyme activity was assayed by using an anti-phosphoserine antibody to measure the quantity of phosphate incorporated into the AMARAA.
(§1) N°: Number of the molecule
Activity: Ratio between the % of control (basal activity) of compound of formula (I) at 30 μM and the % of control (basal activity) of AMP (natural substrate) at 30 μM.
Compounds of formula (I) in the table II are considered as direct activator of AMPK if the ratio is 90% or higher.

[2] = tested on: H-2 Kb cells; assay: Glucose uptake in H-2 Kb cells (in vitro cellular test); format: cell-based, mouse; conditions: H-2 Kb cells differentiated in muscle, 4 hours incubation, 2-deoxy-D-[1,2 3H] glucose uptake 10 min
Description: Glucose Uptake in H-2 Kb Cells (In Vitro Cellular Test)
The following cellular test allows the determination of the effect of AMPK activators such as compounds of formula (I) onto glucose uptake in a muscle cellular model.
H-1-2 Kb cells derived from heterozygous H-2 Kb tsA58 transgenic mouse were grown in 24-well in plates coated with matrigel and were cultured at 33° C. for 4 days under permissive conditions, as described previously by Fryer et al. (Diabetes 49 (12): 1978, 2000).
For differentiation in muscle, cells were switched to non-permissive culture conditions (37° C. in the absence of interferon-γ). After 3 days, cells were incubated for 4 hours in DMEM 1 g/l glucose culture medium containing different concentrations of the tested molecules. Then glucose uptake was measured by incubating the cells for 10 min with radiolabelled 2-deoxy-D-[1,2 ^3H] glucose. Glucose uptake was terminated by rapidly washing the plates 2 times with ice-cold NaCl 0.9%. The cells were then solubilized in 0.1N NaOH for 30 min. Radioactivity was determined by liquid scintillation counting.
as §1
Activity (table III): Concentration of compound (I) for a glucose uptake equal or higher to glucose uptake induced by insulin (170 nM)
^++ or **concentration of compound (I) ≦10 micro Molar
^+ or *concentration of compound (I) >10 micro Molar

| SMILES | activity: Ratio between the % of control (basal activity) of compound of formula (I) at 30 μM and the % of control (basal activity) of AMP at 30 μM [1] | Activity (table III): Concentration of compound (I) for a glucose uptake equal or higher to glucose uptake induced by insulin (170 nM) [2] |
| --- | --- | --- |
| O=c1[nH]c2sc(Cl)c(-c3ccc(O)c(F)c3)c2c(O)c1-c1ccccc1 [Compound 109] | 200% | ** (^++ or **concentration of compound (I) ≦10 micro Molar) |
| O=c1[nH]c2sc(Cl)c(-c3ccccc3O)c2c(O)c1-c1ccccc1 [Compound 121] | 143% | * (^+ or *concentration of compound (I) >10 micro Molar) |
| Cc1cccc(-c2c(Cl)sc3[nH]c(=O)c(-c4ccccc4)c(O)c23)c1 [Compound 125] | 101% | ** (^++ or **concentration of compound (I) ≦10 micro Molar) |
| COc1cc(F)ccc1-c1c(Cl)sc2[nH]c(=O)c(-c3ccccc3)c(O)c12 [Compound 187] | 124% | + (^+ or *concentration of compound (I) >10 micro Molar) |
| O=c1[nH]c2scc(-c3ccc(F)cc3)c2c(O)c1-c1ccccc1 [Compound 27] | 114% | * (^+ or *concentration of compound (I) >10 micro Molar) |
| Cc1ccc(-c2c(Cl)sc3[nH]c(=O)c(-c4ccccc4)c(O)c23)c(O)c1F [Compound 210] | 181% | ++ (^++ or **concentration of compound (I) ≦10 micro Molar) |
| Cc1ccc(-c2c(Cl)sc3[nH]c(=O)c(-c4cccc(C#N)c4)c(O)c23)c(O)c1 [Compound 101] | – | * (^+ or *concentration of compound (I) >10 micro Molar) |
| O=c1[nH]c2sc(Cl)c(-c3cccc(F)c3)c2c(O)c1-c1ccccc1 [Compound 126] | 98% | * (^+ or *concentration of compound (I) >10 micro Molar) |
| COc1ccc(-c2c(Cl)sc3[nH]c(=O)c(-c4ccccc4)c(O)c23)cc1OC [Compound 190] | 256% | + (^+ or *concentration of compound (I) >10 micro Molar) |
| Cc1ccc(-c2c(O)c3c(-c4ccccc4)c(Cl)sc3[nH]c2=O)cc1 [Compound 174] | 245% | + (^+ or *concentration of compound (I) >10 micro Molar) |
| Cc1ccccc1-c1c(O)c2c(-c3ccccc3)c(Cl)sc2[nH]c1=O [Compound 164] | 354% | + (^+ or *concentration of compound (I) >10 micro Molar) |
| Cc1ccc(-c2csc3[nH]c(=O)c(-c4ccccc4)c(O)c23)c(O)c1 [Compound 83, 4-hydroxy-3-(2-hydroxy-4-methylphenyl)-5-phenyl-6,7-dihydro-thieno[2,3-b]pyridin-6-one] | 403% | * (^+ or *concentration of compound (I) >10 micro Molar) |
| O=c1[nH]c2sc(Cl)c(-c3ccc4ccccc4c3O)c2c(O)c1-c1ccccc1 [Compound 136] | 488% | ** (^++ or **concentration of compound (I) ≦10 micro Molar) |
| O=c1[nH]c2scc(-c3ccccc3)c2c(O)c1-c1ccc(O)cc1 [Compound 20] | 99% | * (^+ or *concentration of compound (I) >10 micro Molar) |
| Cc1ccc(-c2csc3[nH]c(=O)c(-c4ccccc4)c(O)c23)cc1 [Compound 35] | 126% | ** (^++ or **concentration of compound (I) ≦10 micro Molar) |
| O=c1[nH]c2sc(Cl)c(-c3ccc4ccccc4c3)c2c(O)c1-c1ccccc1 [Compound 137] | 129% | * (^+ or *concentration of compound (I) >10 micro Molar) |

| SMILES | activity: Ratio between the % of control (basal activity) of compound of formula (I) at 30 μM and the % of control (basal activity) of AMP at 30 μM [1] | Activity (table III): Concentration of compound (I) for a glucose uptake equal or higher to glucose uptake induced by insulin (170 nM) [2] |
| --- | --- | --- |
| COc1cc(-c2c(Cl)sc3[nH]c(=O)c(-c4ccccc4)c(O)c23)ccc1C [Compound 103] | – | * (^+ or *concentration of compound (I) >10 micro Molar) |
| Cc1ccc(-c2c(O)c3c(-c4ccc(C)cc4O)c(Cl)sc3[nH]c2=O)cc1 [Compound 194] | 183% | ++ (^++ or **concentration of compound (I) ≦10 micro Molar) |
| Cc1sc2[nH]c(=O)c(-c3ccccc3)c(O)c2c1-c1ccccc1 [Compound 10] | 96% | * (^+ or *concentration of compound (I) >10 micro Molar) |
| O=c1[nH]c2sc(Cl)c(-c3ccccc3)c2c(O)c1-c1ccccc1 [Compound 162] | 107% | ** (^++ or **concentration of compound (I) ≦10 micro Molar) |
| Cc1ccc(-c2c(Cl)sc3[nH]c(=O)c(-c4ccccc4)c(O)c23)cc1O [Compound 102] | – | ** (^++ or **concentration of compound (I) ≦10 micro Molar) |
| COc1ccc(-c2csc3[nH]c(=O)c(-c4ccccc4)c(O)c23)c(O)c1 [Compound 81] | 223% | – |
| O=c1[nH]c2sc(Cl)c(-c3ccccc3)c2c(O)c1-c1ccccc1O [Compound 159] | 164% | – |
| COc1ccc(-c2csc3[nH]c(=O)c(-c4ccccc4)c(O)c23)cc1 [Compound 32] | 147% | – |
| COc1ccc(O)c(-c2csc3[nH]c(=O)c(-c4ccccc4)c(O)c23)c1 [Compound 79] | 593% | – |
| COc1cc(-c2csc3[nH]c(=O)c(-c4ccccc4)c(O)c23)ccc1C [Compound 84] | 158% | – |
| O=c1[nH]c2scc(-c3ccc(O)cc3F)c2c(O)c1-c1ccccc1 [Compound 62] | 101% | – |
| O=c1[nH]c2scc(-c3cccc(CO)c3)c2c(O)c1-c1ccccc1 [Compound 52] | 176% | – |
| COc1ccc(-c2csc3[nH]c(=O)c(-c4ccccc4)c(O)c23)cc1F [Compound 71] | 131% | – |
| O=c1[nH]c2scc(-c3ccc(Br)cc3O)c2c(O)c1-c1ccccc1 [Compound 77] | 257% | – |
| O=c1[nH]c2scc(-c3ccc(F)cc3F)c2c(O)c1-c1ccccc1 [Compound 64] | 109% | – |
| Cc1cccc(-c2csc3[nH]c(=O)c(-c4ccccc4)c(O)c23)c1 [Compound 50] | 103% | – |
